Data on one molecule can be found in patent US5610171A, “Inhibition of metastasis in patients having cancer with pyridyloxazole-2-ones” (Merrell Pharmaceuticals Inc., priority 1995, dated 1997).

pIC50: −log10 of the molar value. Read-outs that look alike come from different tables or passages of the source.

In data set [1] the test system is cytosolic PKC. Description: PKC activity in cytosol of pretreated B16F1 cells. The format is cell-based, murine. The settings on record: 24 hours. As for the experimental part: (§1) Protein Kinase C Preparation
(§2) Cytostolic and membrane-associated PKC was prepared as described in Thomas, T. P., Gopalakrishna, R. and Anderson, W. B. Hormone- and tumor promoter-induced activation of membrane association of protein kinase C in intact cells, Methodsin Enzymology, 141: 399-411, 1987. Sub-confluent B16F1 cultures (4×10^7 cells total) were washed twice with phosphate buffered saline (PBS), pH 7.2 and then twice with buffer A (20 mM Tris, pH 7.5, 2 mM EDTA, 0.5 mM EGTA, […], 2 mM phenylmethylsulfonyl fluoride (PMSF), and 2 μg/ml leupeptin). Cells were scraped from the plates in buffer A, homogenized (40 strokes) and sedimented by centrifugation for 1 hour at 100,000 g. The cytosol was stored on ice while the particulate fraction was washed with buffer B (20 mM Tris, pH 7.2, 2 mM EDTA, 0.5 mM EGTA, and 2 mM (PMSF). The membranes were resuspended with buffer B and homogenized with 10 strokes. Nonidet P-40 (1% final concentration) was added and the mixture was incubated for 30 minutes at 4° C. in a rotating mixer. Nonsolubilized material was removed by centrifugation for 10 minutes at 1400 g. Cytostolic and membrane-bound PKC was partially purified by chromatography over 1 ml columns of DE-52 (Whatman) equilibrated with buffer B. The enzyme was applied to the column and washed with 2×3 ml buffer B. Elution of PKC was then effected by the addition of 2 ml buffer B containing 100 mM NaCl.
PKC was quantitated as described in Thomas et al., ibid. The assay contained 20 mM Tris (pH 7.5), 0.75 mM CaCl, 10 mM magnesium acetate, […] histone III-S, 0.25 μg/ml leupeptin, 100 μM [gamma-^32 p]-ATP (120 cpm/pmol), 0.96 μg/ml phosphatidylserine, and 0.0064 μg/ml 1,2-diolein in a total assay volume of 250 μl. Blanks contained no calcium or phospholipids. Incubation was for 5 minutes at 30° C. at which point the reaction was terminated by the addition of 1 ml 25% trichloroacetic acid (TCA). […]
then prepared and its activity was measured as described in […]

The subject of a further data set is B16F1 cells. Description: Experimental lung metastasis assay (B16F1 cells treated in culture, then injected intravenously into C57BL/6 mice). The format is in vivo, murine (C57BL/6 mice). The settings on record: for % Control (number of nodules) / Number of nodules per set of lungs, Mean +/- SE: 24 hours; for pIC50: cells exposed to drugs for 24 hours, nodules counted three weeks later, read-out: B16 Metastasis IC50. The protocol: Experimental Metastasis Assay
Sub-confluent B16F1 cells were harvested by washing with HBSS followed by trypsinization for 1 minute. The cells were sedimented by centrifugation (250 g, 5 minutes) and washed twice with HBSS. Viable cells were counted after dilution with trypan blue. A single-cell suspension of 10^5 cells in 0.2 ml HBSS was injected intravenously into 16-18 C57BL/6 mice via the tail vein. Three weeks later, the number of metastatic foci in the lung were counted.

The next data set concerns membrane-associated PKC. Nature of the data set: Inhibition of B16F1 membrane-associated PKC activity. Format: biochemical, murine. The settings on record: B16F1 membrane fraction. As for the experimental part: as §1, §2
(§3) PKC was quantitated as described in Thomas et al., ibid. The assay contained 20 mM Tris (pH 7.5), 0.75 mM CaCl, 10 mM magnesium acetate, […] histone III-S, 0.25 μg/ml leupeptin, 100 μM [gamma-^32 p]-ATP (120 cpm/pmol), 0.96 μg/ml phosphatidylserine, and 0.0064 μg/ml 1,2-diolein in a total assay volume of 250 μl. Blanks contained no calcium or phospholipids. Incubation was for 5 minutes at 30° C. at which point the reaction was terminated by the addition of 1 ml 25% trichloroacetic acid (TCA). Samples were applied to Whatman GF/B filters, the tube rinsed twice with 5% TCA and the filter then washed 5 times with 5% TCA.

For data set [2], the system named is B16F1 murine melanoma cells. Description: Viability of treated B16F1 cells by [3H]-thymidine incorporation. The format is cell-based. The settings on record: 24 hours. For orientation: Incorporation of labelled thymidine or its analogues reports DNA synthesis.
Data set [3] deals with cytosolic PKC. Nature of the data set: Inhibition of B16F1 cytosolic PKC activity. The format is biochemical, murine. The settings on record: B16F1 cytosol fraction. The protocol:
as §1, §2, §3
^a Subconfluent B16F1 cells were harvested and cytosol and membrane
fractions prepared as described in Materials and Methods. PKC activity wa
then measured in the presence of the drugs listed.

A further data set relates to fibronection. Nature of the data set: Adhesion of B16F1 cells to fibronectin. The settings on record: 24 hours. Format: cell-based. The protocol:
Adhesion of B16F1 Cells to Basement Membrane Proteins
Adhesion proteins (2 μg/well) were coated onto Immulon I Removawells from Dynatech and incubated for 1 hour at 37° C. The wells were then blocked for 1 hour with 400 μl PBS, pH 7.2 containing 1% bovine serum albumin (BSA) at 37° C. Prior to addition of the cell suspension, the blocking solution was aspirated.
Sub-confluent cells were washed twice with HBSS and removed form flasks by incubation for 10 minutes at 37° C. with PBS (pH 7.2), 2 mM EDTA, and 1% BSA. The cells were washed twice with MEM containing 20 mM HEPES and 0.1% BSA and resuspended in the same medium to give a cell density of […].
Cells were added to wells in 50 μl (5×10^4 cells) and incubated at 37° C. The wells were aspirated and washed three times with 400 μl PBS (pH 7.2) containing 0.1% BSA. Wells were detached and counted in 5 ml Beckman Ready Protein. Blanks were not coated with protein but were blocked with BSA as described above.

Usually pIC50 stands for −log10 of the IC50, conventionally taken in molar units. For the molecule `CCCc1[nH]c(=O)oc1-c1ccncc1` [Compound 1, 4-propyl-5(4-pyridinyl)-2(3H)-oxazolone], the “PKC Activity, cytosol” value in the data set on cytosolic PKC [1] (5 μM) was 7305 pmol per min per mg protein; in the data set with cytosolic PKC [1] (25 μM) it was 2485 pmol per min per mg protein; in the data set with cytosolic PKC [1] (50 μM), 3658 pmol per min per mg protein. Further, the “% Control (number of nodules)” value with B16F1 cells (1 μM) was 67%; with B16F1 cells (5 μM), 78%; in the data set with B16F1 cells (10 μM), 43%; in the data set on B16F1 cells (20 μM), 30%; in the data set on B16F1 cells (50 μM), 12%. Moreover, the “Number of nodules per set of lungs, Mean +/- SE” value is 12 +/- 2.8 nodules per set of lungs in the data set with B16F1 cells (1 μM); 14 +/- 3.3 nodules per set of lungs in the data set on B16F1 cells (5 μM); 7.8 +/- 2.1 nodules per set of lungs in the data set on B16F1 cells (10 μM); 5.4 +/- 1.1 nodules per set of lungs in the data set on B16F1 cells (20 μM); 2 +/- 0.6 nodules per set of lungs with B16F1 cells (50 μM). In addition, the “inhibition of lung metastasis” value in the data set on B16F1 cells (24 hours in culture, then intravenous injection into C57BL/6 mice) worked out at 90%. Moreover, the pIC50 in the data set with B16F1 cells (Mus musculus, B16-F1, iv) was 5.17; in the data set with B16F1 cells, 5.15; in the data set with membrane-associated PKC it was 4.89; in the data set on cytosolic PKC [3] it was 4.27. Besides, in the data set on B16F1 cells (cells exposed in vitro, then injected into mice), the “number of lung metastases” value is recorded as “diminished the number of lung metastases”. In the data set on B16F1 cells (time dependence of incubation), the “incubation time for 50% of maximum inhibition of metastasis” value was not above 8 h. In the data set with B16F1 cells (versus H-7), the “potency for inhibition of metastasis relative to H-7” value is listed as “more potent than H-7”. For the same molecule, in the data set with B16F1 cells (versus staurosporine), the “potency for inhibition of metastasis relative to staurosporine” value is on record as “significantly less potent than staurosporine”. Further, in data set [2], the “viability of treated cells ([3H]-thymidine incorporation)” value was “equivalent to untreated cells”. For the same molecule, the adherence to fibronection result in the data set on fibronection was “inhibited minimally or not at all”.
